Laboratory results taken from patent publication US20250115654A1, “PHARMACEUTICAL COMPOSITION OF GLP-1 RECEPTOR AND GIP RECEPTOR DUAL AGONIST, AND USE THEREOF” (FUJIAN SHENGDI PHARMACEUTICAL CO., LTD., priority 2021, published 2025).
Marks after values point to notes of the source that are not given here. Numbered stars: 1 amine (or outer) side, 2 acyl side, 3 side chain; on linkers, the order of the positions; unused ones are H or OH. Square brackets hold non-standard residues; d marks the D form. Side chains are listed from the residue outwards. Peptide text beside a SMILES is read from it. * marks the point of attachment. C20 diacid = O=C(O)CCCCCCCCCCCCCCCCCCC(=O)*; γGlu = O=C(O)[C@H](CCC(=O)[*:2])N[*:1]; AEEA = NCCOCCOCC(=O)O; Aib = CC(C)(N)C(=O)O

Experiments:
[1] = test system: diet-induced-obesity mice; assay: Viscera/brain ratio for fat mass in different parts of diet-induced obesity mice; format: in vivo, C57BL/6 mice
Method: High-fat food-induced-obesity male C57BL/6 mice (weighing 35-55 g, aged 10-12 weeks, purchased from Shanghai Jiesijie Laboratory Animal Co., Ltd.) were tested. […] According to the experimental design, the body weight of each mouse was measured and recorded on day 0, day 3, day 6, and so on to day 27, the average body weight of each group of mice was calculated, and body weight change curves were plotted by taking the body weight on the first day as the standard. At the end, the fat and other visceral organs of each part of the mice were taken out and weighed, and the viscera/brain ratio for fat in each part of each mouse was calculated. The effect of the drug on the fat was determined by comparing the change in the viscera/brain ratio for fat of different parts of each group of mice.

[2] = test system: diet-induced-obesity mice; assay: Body weight of diet-induced-obesity mice, subcutaneous administration once every 3 days; format: in vivo, C57BL/6 mice

CC[C@H](C)[C@H](NC(=O)[C@H](CCCCN)NC(=O)[C@H](CCC(=O)O)NC(=O)[C@H](CCCCNC(=O)COCCOCCNC(=O)COCCOCCNC(=O)CC[C@H](NC(=O)CCCCCCCCCCCCCCCCCCC(=O)O)C(=O)O)NC(=O)[C@H](Cc1ccc(O)cc1)NC(=O)[C@@H](NC(=O)[C@H](CO)NC(=O)[C@H](Cc1ccc(O)cc1)NC(=O)[C@H](CC(=O)O)NC(=O)[C@H](CO)NC(=O)[C@@H](NC(=O)[C@H](Cc1ccccc1)NC(=O)[C@@H](NC(=O)CNC(=O)[C@H](CCC(=O)O)NC(=O)C(C)(C)NC(=O)[C@@H](N)Cc1ccc(O)cc1)[C@@H](C)O)[C@@H](C)O)[C@@H](C)CC)C(=O)N[C@@H](C)C(=O)N[C@@H](C)C(=O)N[C@@H](CCC(N)=O)C(=O)N[C@@H](CCC(=O)O)C(=O)N[C@@H](Cc1ccccc1)C(=O)N[C@H](C(=O)N[C@@H](CC(N)=O)C(=O)N[C@@H](Cc1c[nH]c2ccccc12)C(=O)N[C@@H](CC(C)C)C(=O)N[C@@H](CC(C)C)C(=O)N[C@@H](C)C(=O)NCC(=O)NCC(=O)N1CCC[C@H]1C(=O)N[C@@H](CO)C(=O)N[C@@H](CO)C(=O)NCC(=O)N[C@@H](C)C(=O)N1CCC[C@H]1C(=O)N1CCC[C@H]1C(=O)N1CCC[C@H]1C(=O)N[C@@H](CO)C(N)=O)C(C)C [Compound 18#] (H-Y[Aib]EGTFTSDYSIYK([AEEA-AEEA-γGlu-C20 diacid])EKIAAQEFVNWLLAGGPSSGAPPPS-NH2)
viscera/brain ratio, Epididymal fat ([1]; 3 nmol/kg): 254.6 ± 113.4 %
viscera/brain ratio, Inguinal fat ([1]; 3 nmol/kg): 281.5 ± 140.1 %
viscera/brain ratio, Mesenteric fat ([1]; 3 nmol/kg): 84.8 ± 41.3 %
viscera/brain ratio, Perirenal fat ([1]; 3 nmol/kg): 159.2 ± 87.6 %
viscera/brain ratio, Scapular fat ([1]; 3 nmol/kg): 48 ± 15.3%
viscera/brain ratio, Subcutaneous fat ([1]; 3 nmol/kg): 120 ± 62 %
viscera/brain ratio, Epididymal fat ([1]; 10 nmol/kg): 211.7 ± 80.7 %
viscera/brain ratio, Inguinal fat ([1]; 10 nmol/kg): 194.4 ± 86.2 %
viscera/brain ratio, Mesenteric fat ([1]; 10 nmol/kg): 53.3 ± 14.6 %
viscera/brain ratio, Perirenal fat ([1]; 10 nmol/kg): 109.4 ± 57.1 %
viscera/brain ratio, Scapular fat ([1]; 10 nmol/kg): 42.5 ± 17^ %
viscera/brain ratio, Subcutaneous fat ([1]; 10 nmol/kg): 122 ± 73.2 %
viscera/brain ratio, Epididymal fat ([1]; 100 nmol/kg): 102.9 ± 32.2 %
viscera/brain ratio, Inguinal fat ([1]; 100 nmol/kg): 92 ± 34.5 %
viscera/brain ratio, Mesenteric fat ([1]; 100 nmol/kg): 27.4 ± 11.1 %
viscera/brain ratio, Perirenal fat ([1]; 100 nmol/kg): 46.6 ± 18.2 %
viscera/brain ratio, Scapular fat ([1]; 100 nmol/kg): 32.3 ± 7%
viscera/brain ratio, Subcutaneous fat ([1]; 100 nmol/kg): 57.1 ± 21.2 %
content of fat of each part (except scapular fat) relative to placebo group ([1]; all dose test groups): significantly reduced
rate of change in body weight ([2]; 3 nmol/kg, day 0 (before administration)): 0%
rate of change in body weight ([2]; 3 nmol/kg, day 1 after administration): −5 ± 0.6%
rate of change in body weight ([2]; 3 nmol/kg, day 2 after administration): −6.3 ± 1 ^ %
rate of change in body weight ([2]; 3 nmol/kg, day 3 after administration): −5.8 ± 1.9%
rate of change in body weight ([2]; 3 nmol/kg, day 4 after administration): −9.1 ± 2.1 %
rate of change in body weight ([2]; 3 nmol/kg, day 5 after administration): −10.3 ± 3.2 %
rate of change in body weight ([2]; 3 nmol/kg, day 6 after administration): −10 ± 4.4 %
rate of change in body weight ([2]; 3 nmol/kg, day 7 after administration): −13 ± 5.3 %
rate of change in body weight ([2]; 3 nmol/kg, day 8 after administration): −13.9 ± 6.1 %
rate of change in body weight ([2]; 3 nmol/kg, day 9 after administration): −13.9 ± 7.4 %
rate of change in body weight ([2]; 3 nmol/kg, day 10 after administration): −16.6 ± 7.8 %
rate of change in body weight ([2]; 3 nmol/kg, day 11 after administration): −16.4 ± 8.2 %
rate of change in body weight ([2]; 3 nmol/kg, day 12 after administration): −15.7 ± 8.6 %
rate of change in body weight ([2]; 3 nmol/kg, day 13 after administration): −18.2 ± 8.2 %
rate of change in body weight ([2]; 3 nmol/kg, day 14 after administration): −17.1 ± 7.2 %
rate of change in body weight ([2]; 3 nmol/kg, day 15 after administration): −15.7 ± 7.4 %
rate of change in body weight ([2]; 3 nmol/kg, day 16 after administration): −18.6 ± 7 %
rate of change in body weight ([2]; 3 nmol/kg, day 17 after administration): −18.3 ± 7***^ %
rate of change in body weight ([2]; 3 nmol/kg, day 18 after administration): −17.9 ± 7.1 %
rate of change in body weight ([2]; 3 nmol/kg, day 19 after administration): −20.5 ± 7.5 %
rate of change in body weight ([2]; 3 nmol/kg, day 20 after administration): −19.8 ± 7.4 %
rate of change in body weight ([2]; 3 nmol/kg, day 21 after administration): −17.8 ± 7.3 %
rate of change in body weight ([2]; 3 nmol/kg, day 22 after administration): −19.3 ± 8.2 %
rate of change in body weight ([2]; 3 nmol/kg, day 23 after administration): −19.1 ± 7.6 %
rate of change in body weight ([2]; 3 nmol/kg, day 24 after administration): −17.3 ± 7.4 %
rate of change in body weight ([2]; 3 nmol/kg, day 25 after administration): −19.9 ± 7.6 %
rate of change in body weight ([2]; 3 nmol/kg, day 26 after administration): −18.8 ± 8 %
rate of change in body weight ([2]; 3 nmol/kg, day 27 after administration): −16.1 ± 7.6 %
rate of change in body weight ([2]; 3 nmol/kg, day 28 after administration): −19.2 ± 8***^ %
body weight reduced ([2]; 10 nmol/kg dose group, day 27): more than 20.0%
rate of change in body weight ([2]; 10 nmol/kg, day 0 (before administration)): 0%
rate of change in body weight ([2]; 10 nmol/kg, day 1 after administration): −6.2 ± 1.1%
rate of change in body weight ([2]; 10 nmol/kg, day 2 after administration): −8.6 ± 0.9 %
rate of change in body weight ([2]; 10 nmol/kg, day 3 after administration): −9.4 ± 1.6 %
rate of change in body weight ([2]; 10 nmol/kg, day 4 after administration): −12.7 ± 2.4 %
rate of change in body weight ([2]; 10 nmol/kg, day 5 after administration): −14.5 ± 3.3 %
rate of change in body weight ([2]; 10 nmol/kg, day 6 after administration): −15 ± 5.3 %
rate of change in body weight ([2]; 10 nmol/kg, day 7 after administration): −18.3 ± 6.3 %
rate of change in body weight ([2]; 10 nmol/kg, day 8 after administration): −20.1 ± 8***^ %
rate of change in body weight ([2]; 10 nmol/kg, day 9 after administration): −20.3 ± 9.3 %
rate of change in body weight ([2]; 10 nmol/kg, day 10 after administration): −23.4 ± 9.8 %
rate of change in body weight ([2]; 10 nmol/kg, day 11 after administration): −23.9 ± 10.7 %
rate of change in body weight ([2]; 10 nmol/kg, day 12 after administration): −23.5 ± 11.4 %
rate of change in body weight ([2]; 10 nmol/kg, day 13 after administration): −26.4 ± 11.8 %
rate of change in body weight ([2]; 10 nmol/kg, day 14 after administration): −25.1 ± 12.1 %
rate of change in body weight ([2]; 10 nmol/kg, day 15 after administration): −23.4 ± 9***^ %
rate of change in body weight ([2]; 10 nmol/kg, day 16 after administration): −26.6 ± 9.7 %
rate of change in body weight ([2]; 10 nmol/kg, day 17 after administration): −25.7 ± 8.7 %
rate of change in body weight ([2]; 10 nmol/kg, day 18 after administration): −24.6 ± 8.2 %
rate of change in body weight ([2]; 10 nmol/kg, day 19 after administration): −27.5 ± 7.6 %
rate of change in body weight ([2]; 10 nmol/kg, day 20 after administration): −27.3 ± 7.2 %
rate of change in body weight ([2]; 10 nmol/kg, day 21 after administration): −24.8 ± 6.7 %
rate of change in body weight ([2]; 10 nmol/kg, day 22 after administration): −28.1 ± 7.4 %
rate of change in body weight ([2]; 10 nmol/kg, day 23 after administration): −27.1 ± 7***^ %
rate of change in body weight ([2]; 10 nmol/kg, day 24 after administration): −26 ± 7.1 %
rate of change in body weight ([2]; 10 nmol/kg, day 25 after administration): −28.5 ± 8.8 %
rate of change in body weight ([2]; 10 nmol/kg, day 26 after administration): −27.8 ± 8.3 %
rate of change in body weight ([2]; 10 nmol/kg, day 27 after administration): −24.8 ± 8.4 %
rate of change in body weight ([2]; 10 nmol/kg, day 28 after administration): −28.2 ± 8.3 %
rate of change in body weight ([2]; 100 nmol/kg, day 0 (before administration)): 0%
rate of change in body weight ([2]; 100 nmol/kg, day 1 after administration): −6.3 ± 0.5%
rate of change in body weight ([2]; 100 nmol/kg, day 2 after administration): −10.9 ± 0.8 %
rate of change in body weight ([2]; 100 nmol/kg, day 3 after administration): −13.2 ± 1 %
rate of change in body weight ([2]; 100 nmol/kg, day 4 after administration): −15.7 ± 0.9 %
rate of change in body weight ([2]; 100 nmol/kg, day 5 after administration): −19.2 ± 1.3 %
rate of change in body weight ([2]; 100 nmol/kg, day 6 after administration): −21.8 ± 2.3 %
rate of change in body weight ([2]; 100 nmol/kg, day 7 after administration): −24.7 ± 3.3 %
rate of change in body weight ([2]; 100 nmol/kg, day 8 after administration): −27.6 ± 3.7 %
rate of change in body weight ([2]; 100 nmol/kg, day 9 after administration): −29.6 ± 4.7 %
rate of change in body weight ([2]; 100 nmol/kg, day 10 after administration): −31.6 ± 5.3 %
rate of change in body weight ([2]; 100 nmol/kg, day 11 after administration): −33.7 ± 6.3 %
rate of change in body weight ([2]; 100 nmol/kg, day 12 after administration): −34.4 ± 7.1 %
rate of change in body weight ([2]; 100 nmol/kg, day 13 after administration): −35.6 ± 6.2 %
rate of change in body weight ([2]; 100 nmol/kg, day 14 after administration): −36.7 ± 5.7 %
rate of change in body weight ([2]; 100 nmol/kg, day 15 after administration): −35.7 ± 5.6 %
rate of change in body weight ([2]; 100 nmol/kg, day 17 after administration): −38.2 ± 6.2 %
rate of change in body weight ([2]; 100 nmol/kg, day 18 after administration): −37.8 ± 6.5 %
rate of change in body weight ([2]; 100 nmol/kg, day 19 after administration): −38.5 ± 6.5 %
rate of change in body weight ([2]; 100 nmol/kg, day 20 after administration): −39 ± 6.5 %
rate of change in body weight ([2]; 100 nmol/kg, day 21 after administration): −37.4 ± 6.6 %
rate of change in body weight ([2]; 100 nmol/kg, day 22 after administration): −38.3 ± 6.2 %
rate of change in body weight ([2]; 100 nmol/kg, day 23 after administration): −38 ± 5.9 %
rate of change in body weight ([2]; 100 nmol/kg, day 24 after administration): −36.8 ± 5.8 %
rate of change in body weight ([2]; 100 nmol/kg, day 25 after administration): −38.6 ± 5.7 %
rate of change in body weight ([2]; 100 nmol/kg, day 26 after administration): −38.9 ± 6 %
rate of change in body weight ([2]; 100 nmol/kg, day 27 after administration): −36.8 ± 5.3 %
rate of change in body weight ([2]; 100 nmol/kg, day 28 after administration): −37.9 ± 5.7 %
body weight-reducing effect on high-fat food-induced-obesity mice ([2]; doses of 3, 10 and 100 nmol/kg): significant body weight-reducing effect
